Experimental data as given in PMC6934184, “Selective DNA-PKcs inhibition extends the therapeutic index of localized radiotherapy and chemotherapy” (The Journal of Clinical Investigation, 2019).

Biological target: T1, PRKACA (PKA) (Homo sapiens, UniProt P17612)
T1 construct: purchased Thermo Fisher Scientific (Life Technologies) SelectScreen
Assay: SelectScreen Z'LYTE
Assay type: biochemical
Summary of the method: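 Percent values come from Thermo SelectScreen profiling of NU5455, combining activity and binding assays. CSF1R was run in Z'LYTE format at Km app ATP, and CAMK1 in Adapta format with ATP listed at 10.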

CN(C(=O)CN1CCOCC1)c1ccc2sc3c(-c4cccc5c(=O)cc(N6CC7CCC(C6)O7)oc45)cccc3c2c1 [NU5455]
inhibition at 1 µM: 14%
